Where a SMILES comes first, the peptide text is derived from it. Bridges are numbered along the chain shown (N, C = ends). [ ]: non-standard residue; d: D form. The star is where a group is joined. hPhe(3-Cl-4-CF3) = N[C@@H](CCc1ccc(C(F)(F)F)c(Cl)c1)C(=O)O; NPrPhe(4-CF3) = CCCN[C@@H](Cc1ccc(C(F)(F)F)cc1)C(=O)O; Pro(4-spirocPr) = O=C(O)[C@@H]1CC2(CC2)CN1; Morpholine(3S-CO) = O=C(O)[C@@H]1COCCN1; Pip(4,4-F2) = O=C(O)[C@@H]1CC(F)(F)CCN1; NMeGly(cPent) = CN[C@H](C(=O)O)C1CCCC1; Hyp = O=C(O)[C@@H]1C[C@@H](O)CN1; NMeD = CN[C@@H](CC(=O)O)C(=O)O; NMeL = CN[C@@H](CC(C)C)C(=O)O; Morpholide = C1CN(*)CCO1; Ac5c = NC1(C(=O)O)CCCC1; NEtG = CCNCC(=O)O; Sar = CNCC(=O)O

The term Kd denotes the constant that tells how readily two partners part at equilibrium.

Experiment [1] has as its target GDP-bound HRAS wild-type protein (Homo sapiens, UniProt P01112). The experiment can be described thus: Binding to HRAS by surface plasmon resonance (SPR), Single Cycle Kinetics. The following applies: SPR, GDP-bound HRAS wild-type protein vs GDP-bound KRAS wild-type protein.
Experiment [2] addresses GDP-bound KRAS wild-type protein (Homo sapiens, UniProt P01116). The experiment can be described thus: Binding to KRAS by surface plasmon resonance (SPR), Single Cycle Kinetics. The following applies: SPR Single Cycle Kinetics, GDP-bound KRAS wild-type protein, 1:1 binding model; read-out: KRAS KD. A general note: In SPR one partner is held on a chip, and binding of the other changes the refractive index at the surface.

In experiment [3] the target is GDP-bound NRAS wild-type protein (Homo sapiens, UniProt P01111). The experiment can be described thus: Binding to NRAS by surface plasmon resonance (SPR), Single Cycle Kinetics. The following applies: SPR, GDP-bound NRAS wild-type protein vs GDP-bound KRAS wild-type protein.
Chain of GDP-bound NRAS wild-type protein (P01111 whole entry): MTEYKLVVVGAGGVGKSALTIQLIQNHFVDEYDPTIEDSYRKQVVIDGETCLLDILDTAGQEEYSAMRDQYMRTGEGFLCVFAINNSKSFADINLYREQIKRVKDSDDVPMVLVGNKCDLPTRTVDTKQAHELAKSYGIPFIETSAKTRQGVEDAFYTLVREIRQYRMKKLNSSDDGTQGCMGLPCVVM

Chain of GDP-bound HRAS wild-type protein (P01112 whole entry): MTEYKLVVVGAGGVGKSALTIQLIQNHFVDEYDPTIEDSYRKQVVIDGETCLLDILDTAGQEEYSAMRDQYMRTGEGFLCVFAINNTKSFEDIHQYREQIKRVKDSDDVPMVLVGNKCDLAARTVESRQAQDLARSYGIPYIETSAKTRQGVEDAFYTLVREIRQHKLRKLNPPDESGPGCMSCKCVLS
Chain of GDP-bound KRAS wild-type protein (P01116 whole entry): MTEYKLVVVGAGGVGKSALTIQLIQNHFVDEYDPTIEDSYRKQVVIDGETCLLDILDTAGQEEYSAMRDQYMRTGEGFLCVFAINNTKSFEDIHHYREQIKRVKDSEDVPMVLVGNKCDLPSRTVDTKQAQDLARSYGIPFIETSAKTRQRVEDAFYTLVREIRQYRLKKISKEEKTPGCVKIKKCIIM

Consider `CCCN1C(=O)CN(C)C(=O)CN(CC)C(=O)[C@H]([C@@H](C)CC)NC(=O)[C@H](CC(C)C)N(C)C(=O)C[C@@H](C(=O)N2CCOCC2)N(C)C(=O)[C@H](C2CCCC2)N(C)C(=O)C2(CCCC2)NC(=O)[C@@H]2CC3(CC3)CN2C(=O)[C@H](CCc2ccc(C(F)(F)F)c(Cl)c2)NC(=O)CN(C)C(=O)[C@@H]1Cc1ccc(C(F)(F)F)cc1` [PP0295] ([NMeL]I[NEtG][Sar][NPrPhe(4-CF3)][Sar][hPhe(3-Cl-4-CF3)][Pro(4-spirocPr)][Ac5c][NMeGly(cPent)][NMeD]-Morpholide; lactam N-11), for which the “HRAS/KRAS (ratio of KD value for HRAS to KD value for KRAS)” value in experiment [1] is “C (A compound having a KD ratio of 0.1 or more and less than 3 is denoted as C)”. Further, in experiment [2], the Kd turned out to be 0.52 nM. For the same compound, the “NRAS/KRAS (ratio of KD value for NRAS to KD value for KRAS)” value in experiment [3] is “B (a compound having 3 or more and less than 10 is denoted as B)”.
Turning to `CCCN1C(=O)CN(C)C(=O)CN(CC)C(=O)[C@H]([C@@H](C)CC)NC(=O)[C@H](CC(C)C)N(C)C(=O)C[C@@H](C(=O)N2CCOCC2)N(C)C(=O)[C@H](C2CCCC2)N(C)C(=O)C2(CCCC2)NC(=O)[C@@H]2C[C@@H](OC)CN2C(=O)[C@H](CCc2ccc(C(F)(F)F)c(Cl)c2)NC(=O)CN(C)C(=O)[C@@H]1Cc1ccc(C(F)(F)F)cc1` [PP0296] ([NMeL]I[NEtG][Sar][NPrPhe(4-CF3)][Sar][hPhe(3-Cl-4-CF3)][Hyp](Me)[Ac5c][NMeGly(cPent)][NMeD]-Morpholide; lactam N-11), the “HRAS/KRAS (ratio of KD value for HRAS to KD value for KRAS)” value in experiment [1] is “C (A compound having a KD ratio of 0.1 or more and less than 3 is denoted as C)”. In addition, the Kd in experiment [2] was 0.15 nM. Besides, the “NRAS/KRAS (ratio of KD value for NRAS to KD value for KRAS)” value in experiment [3] was “B (a compound having 3 or more and less than 10 is denoted as B)”.
Consider `CCCN1C(=O)CN(C)C(=O)CN(CC)C(=O)[C@H]([C@@H](C)CC)NC(=O)[C@H](CC(C)C)N(C)C(=O)C[C@@H](C(=O)N2CCOCC2)N(C)C(=O)[C@H](C2CCCC2)N(C)C(=O)C2(CCCC2)NC(=O)[C@@H]2CC(F)(F)CCN2C(=O)[C@H](CCc2ccc(C(F)(F)F)c(Cl)c2)NC(=O)CN(C)C(=O)[C@@H]1Cc1ccc(C(F)(F)F)cc1` [PP0298] ([NMeL]I[NEtG][Sar][NPrPhe(4-CF3)][Sar][hPhe(3-Cl-4-CF3)][Pip(4,4-F2)][Ac5c][NMeGly(cPent)][NMeD]-Morpholide; lactam N-11), for which, in experiment [1], the “HRAS/KRAS (ratio of KD value for HRAS to KD value for KRAS)” value is “C (A compound having a KD ratio of 0.1 or more and less than 3 is denoted as C)”. Also, the Kd in experiment [2] came out at 3 nM. Also, the “NRAS/KRAS (ratio of KD value for NRAS to KD value for KRAS)” value in experiment [3] was “B (a compound having 3 or more and less than 10 is denoted as B)”.
Regarding `CCCN1C(=O)CN(C)C(=O)CN(CC)C(=O)[C@H]([C@@H](C)CC)NC(=O)[C@H](CC(C)C)N(C)C(=O)C[C@@H](C(=O)N2CCOCC2)N(C)C(=O)[C@H](C2CCCC2)N(C)C(=O)C2(CCCC2)NC(=O)[C@@H]2COCCN2C(=O)[C@H](CCc2ccc(C(F)(F)F)c(Cl)c2)NC(=O)CN(C)C(=O)[C@@H]1Cc1ccc(C(F)(F)F)cc1` [PP0299] ([NMeL]I[NEtG][Sar][NPrPhe(4-CF3)][Sar][hPhe(3-Cl-4-CF3)][Morpholine(3S-CO)][Ac5c][NMeGly(cPent)][NMeD]-Morpholide; lactam N-11), in experiment [1], the “HRAS/KRAS (ratio of KD value for HRAS to KD value for KRAS)” value was “B (a compound having 3 or more and less than 10 is denoted as B)”. Besides, in experiment [2], the Kd was 1.4 nM. The “NRAS/KRAS (ratio of KD value for NRAS to KD value for KRAS)” value in experiment [3] is “B (a compound having 3 or more and less than 10 is denoted as B)”.

The values are drawn from US20240158446A1, “CYCLIC COMPOUND HAVING SELECTIVE INHIBITORY ACTION ON KRAS OVER HRAS AND NRAS” (CHUGAI SEIYAKU KABUSHIKI KAISHA, priority 2021, published 2024).
